Test results published in patent US20050245541A1, “Methods for treating alcoholism” (priority 2004, published 2005).
“Also recorded” adds a separate entry of the source.

What was measured:
[1] = system: rat model of alcohol self-administration; test: Ethanol self-administration (operant lever press) in trained rats; type: in vivo, rat (male Wistar)
Procedure: FIG. 1B is a bar graph showing the amount of ethanol (EtOH) consumed in g/kg at various doses of naltrexone. Based on the number of lever press responses following a dose of naltrexone (FIG. 1A), the corresponding amount of absolute ethanol consumed (g/kg) was calculated. To calculate the amount of absolute ethanol consumed, divide the number of lever presses by 2 to obtain the number of earned reinforcements. From this number, the total volume of the alcohol “cocktail” (10% EtOH in 0.04% saccharine solution) consumed was obtained. The grams of absolute EtOH consumed=the total “cocktail” volume consumed×10% EtOH×0.793 g EtOH/mL. The amount of ethanol (g) divided by the animal's weight (kg) gives the amount of absolute ethanol consumed in g/kg.
(§1) Male Wistar rats (starting weight of 200±30 grams; Charles River Laboratories, Mass.) were individually housed with free access to food and water. The vivarium was maintained within the temperature and relative humidity range specified within the Guide for Care and Use of Laboratory Animals (NIH Publication No. 86-23, revised 1985). These conditions were recorded once daily throughout the study. The vivarium was on a 12 hour light/dark schedule. All animal studies were reviewed and approved by the Alkermes' IACUC (protocol #04-2A).
Animals were trained daily in an operant chamber to press a lever to receive access to an ethanol cocktail as a reinforcer using a saccharin fading procedure. […] The final ethanol cocktail contained 10% ethanol in 0.04% saccharine. Each session lasted 30 minutes, during which the rat could press the lever twice to gain access to 0.1 mL of the ethanol cocktail. The operant chamber (Coulbourne Instruments, Allentown, Pa.) is a computer-controlled automated system which recorded the number of lever presses completed by a rat. At the end of the training period (6-8 weeks), rats which consistently drank a sufficient quantity of ethanol to produce a pharmacological effect (minimum intake of 0.6 g/kg/hour) were selected to participate in the drug studies. These trained rats were used repeatedly throughout these studies to control for intra-subject variability. All drugs were administered acutely with a minimum of a 2 day drug washout period.
Naltrexone was prepared daily in 0.9% saline and administered subcutaneously (SC). The dopamine D2 partial agonist aripiprazole was suspended in 3% carboxymethyl cellulose; a total volume of 1 mL/kg of this suspension was delivered orally (PO) to the rat using a gavage tube. See Table 1 for source and lot numbers of the drugs tested.
The ability of naltrexone to reduce ethanol drinking (i.e., decrease the number of lever presses) was assessed in this animal model of self administration of ethanol. Thirty minutes after the administration of naltrexone (0-6 mg/kg, SC), the animals were placed in the operant chamber and allowed to lever press for the 10% ethanol cocktail. The total number of lever presses was recorded over the 30 minute test session. The rats were repeatedly dosed with naltrexone to generate a dose-response curve for each individual animal.
The dopamine D2 partial agonist aripiprazole was coadministered with naltrexone to determine if it affected naltrexone's ability to decease ethanol drinking. The dose of naltrexone used in this series of studies was the ED50 (that is, the dose of naltrexone that produced a 50% decrease in lever responses for ethanol as determined from the dose-response study). This dose allows one to determine if the coadministered drugs impaired or enhanced naltrexone's effect on ethanol drinking. Aripiprazole was administered orally 30 minutes prior to a naltrexone injection (SC) (i.e., 60 minutes prior to the beginning of the ethanol drinking test session). The number of lever presses for the ethanol cocktail was recorded at the end of the 30 minute session.

[2] = system: audiogenic-induced convulsions in mice exhibiting symptoms of alcohol withdrawal; test: Audiogenic-induced convulsions in mouse model of alcohol withdrawal; type: in vivo, mouse (male C57BL/6); conditions: for Withdrawal Rating (mean ± sem), behavioral response scale of 1-4: mouse
Procedure: as §1, with “C57BL/6 mice” for “Wistar rats”, “15-18” for “200±30”, “were” for “were individually”, “housed in groups of 4 on a ventilated rack” for “housed”, “#04-8A).” for “#04-2A).”
Persistent high alcohol levels in blood and brain are required to develop withdrawal symptoms following termination of alcohol availability. […] Alcohol is provided in a nutritionally balanced liquid diet. This diet becomes the animal's sole source of food and water. While the experimenter controls the duration of the alcohol exposure, the animal determines the dose and pattern of consumption.
After a 3-5 day acclimation period, the mice were individually identified (tail mark with permanent marker) and weighed. The normal rodent chow and water was replaced with a nutritionally complete control liquid diet (Bio-Serv, Lieber-DeCarli diet) for a 5-7 day habituation period. Acquisition of EtOH drinking in mice involved a gradually escalating ethanol concentration procedure. Ethanol treated animals received an EtOH liquid diet containing 1.5% EtOH for 5-7 days. The EtOH concentration was increased every 5-7 days to a final concentration of 6.7%. The liquid diet was administered in a screw capped graduated 100 mL liquid feeding tube mounted inside the cage. The volume of remaining diet was measured and the diet changed daily. The mice were observed daily and weighed every week to assure adequate EtOH diet intake.
Development of alcohol withdrawal symptoms requires a cycle of alcohol/no alcohol. The animals were given a period of 14 days of the EtOH diet (6.7%), 2 days of control diet (balanced isocalorically with maltose dextrin replacing the EtOH) and 5-6 days of the EtOH diet.
One of the hallmark symptoms of alcohol withdrawal in mice is the occurrence of convulsions. These can occur spontaneously, from handling the animal, from a sudden loud sound (audiogenic) or from subthreshold doses of chemical convulsants. For this series of studies, the occurrence of audiogenic-induced convulsions was used as a measure of alcohol withdrawal. […]
Mice from each cage were randomly assigned to one of three groups, vehicle+saline, aripiprazole (10 mg/kg, PO)+saline, or aripiprazole (10 mg/kg, PO)+naltrexone (3 mg/kg, IP). […] Each mouse's behavior in response to the bell was observed by two investigators and the agreed upon results were recorded.

[3] = system: rat model of alcohol self-administration; test: Ethanol self-administration (operant lever press) in trained rats; type: in vivo, rat (male Wistar); conditions: naltrexone 0.5 mg/kg sc, 0.1% saccharine solution substituted for ethanol cocktail

Row | SMILES | Number of Lever Presses (mean ± sem) ([1]; aripiprazole 0.1 mg/kg PO + naltrexone 0.1 mg/kg SC, rat) | Number of Lever Presses (mean ± sem) ([1]; aripiprazole 1.0 mg/kg PO + naltrexone 0.1 mg/kg SC, rat) | Number of Lever Presses (mean ± sem) ([1]; aripiprazole 10.0 mg/kg PO + naltrexone 0.1 mg/kg SC, rat) | Number of Lever Presses (mean ± sem) ([1]; aripiprazole 10.0 mg/kg PO, no naltrexone, rat) | Ethanol-motivated lever presses, combination of naltrexone and aripiprazole versus naltrexone alone ([1]; aripiprazole 0.1-10 mg/kg PO + naltrexone SC, rat) | Withdrawal Rating (mean ± sem), behavioral response scale of 1-4 ([2]; aripiprazole 10 mg/kg PO + naltrexone 3 mg/kg) | Withdrawal Rating (mean ± sem), behavioral response scale of 1-4 ([2]; aripiprazole 10 mg/kg PO + saline) | Anticonvulsant effect on the audiogenic convulsion test ([2]; aripiprazole 10 mg/kg PO with or without naltrexone, p=0.004) | Number of Lever Presses (mean ± sem) ([1]; aripiprazole 0.0 mg/kg PO (vehicle) + naltrexone 0.1 mg/kg SC, rat) | Decrease in lever presses versus baseline and vehicle control (significance) ([1]; lowest dose of naltrexone tested, 0.05 mg/kg) | Decrease in the number of lever presses compared to baseline ([1]; naltrexone alone group of the aripiprazole interaction study (naltrexone 0.1 mg/kg SC per Table 4)) [%] | Specificity of decrease in drinking: lever pressing for saccharine versus ethanol cocktail [3] | Difference between naltrexone and non-naltrexone groups on the audiogenic convulsion test ([2]; naltrexone 3 mg/kg coadministered with aripiprazole 10 mg/kg PO)
1 | O=C1CCc2ccc(OCCCCN3CCN(c4cccc(Cl)c4Cl)CC3)cc2N1 [Aripiprazole, 7-{4-[4-(2,3-dichlorophenyl)-1-piperazinyl]-butoxy}-3-,4-dihydro carbostyril] | 42 ± 11 | 45 ± 8 | 37 ± 7 | 118 ± 26 | no statistical difference | 1.0 ± 0.0 | 1.0 ± 0.0 | significant drug effect (anticonvulsant effect) | – | – | – | – | –
2 | O=C1CC[C@@]2(O)[C@H]3Cc4ccc(O)c5c4[C@@]2(CCN3CC2CC2)[C@H]1O5 [Naltrexone] | – | – | – | – | – | – | – | – | 62 ± 13 | no significant decrease | 47.54 | to the same degree as under the non-drug baseline condition; also recorded: selective for decreasing ethanol drinking in rats (but not saccharine drinking) | no statistical differences
